The record followed here is US7608620B2, “LPAAT-β inhibitors and uses thereof” (Cell Therapeutics, Inc., priority 2000, dated 2009).

This experiment has as its target T1, LPAAT-β (Homo sapiens, UniProt O15120).
T1 construct: the full-length human LPAAT-β cDNA was amplified by PCR; made in house; host or cells: Sf9 insect cells (baculovirus, pFastBac HTc); membrane fraction
T1 sequence (O15120 24-278): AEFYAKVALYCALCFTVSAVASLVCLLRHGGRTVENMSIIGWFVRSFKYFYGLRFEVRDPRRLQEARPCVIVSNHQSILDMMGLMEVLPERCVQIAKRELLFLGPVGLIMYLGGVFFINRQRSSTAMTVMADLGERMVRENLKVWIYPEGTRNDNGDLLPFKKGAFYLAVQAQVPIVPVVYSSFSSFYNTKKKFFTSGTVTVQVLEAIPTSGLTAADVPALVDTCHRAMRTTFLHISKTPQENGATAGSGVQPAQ
In words: LPAATβ colorimetric assay (DTNB detection of released CoA). Type of experiment: biochemical. The note with it: Sf9 cell membrane overexpressing LPAAT-β. On the procedure:
For the construction of Baculovirus expression vectors, the full-length human LPAAT-β cDNA was amplified by PCR from the DNA template pCE9.LPAAT-β (West et al., DNA Cell Biol. 16:691-701 (1997)) using the primers 5′-TGATATCCGAAGAAGATCTTATGGAGCTGTGGCCGTGTC-3′ (olpb1F; SEQ ID NO:3) and 5′-CAGGCTCTAG ACTACTGGGC CGGCTGCAC-3′ (olpb1R; SEQ ID NO:4). The ˜870 bp fragment generated was reamplified by PCR using the primers 5° CCTACGTCG ACATGGAACAAAAATTGATATCCGAAGAAGATC-3′ (olpb2F; SEQ ID NO:5) and 5′-CAGGCTCTAG ACTACTGGGC CGGCTGCAC-3′ (olpb1R; SEQ ID NO:6). The ˜890 bp fragment generated was then cleaved with Sal I and Xba I for insertion into pFastBac™ HTc vector (Life Technologies, Gaithersberg, Md.) between the Sal I and Xba I sites for the generation of the plasmid pFB.LPAAT-β. This plasmid was then transformed into E. coli DH10Bac™ (Life Technologies, Gaithersberg, Md.) for the generation of recombinant Bacmid DNA for transfection into HighFive (Invitrogen, San Diego, Calif.) or SF9 insect cells for the production of recombinant Baculovirus stocks using the protocol described in the Bac-to-Bac® Baculovirus Expression System (Life Technologies, Gaithersberg, Md.), a eukaryotic expression system for generating recombinant baculovirus through site- specific transposition in E. coli. Viral stocks harvested from the transfected cells can then be used to infect fresh insect cells for the subsequent expression of LPAAT-β fusion protein with a poly-histidine tag and a myc-epitope near its N-terminus. The membrane fraction from these Sf9 cells would be the source of LPAAT enzyme.
For the preparation of membranes From Sf9 Cells, all steps are performed on ice or at 4° C. Sf9 cell pellets (˜10^8 cells) were thawed and resuspended in 1-2 ml of buffer A (20 mM Hepes, pH 7.5, 1 mM DTT, 1 mM EDTA, 20% w/v glycerol, 1 mM Benzamidine, 1 μg/ml soybean trypsin inhibitor (SBTI), 1 μg/ml pepstatin A) w/o DTT but with 1 mM Pefabloc. The cells were lysed by sonication using a Branson Sonifier at output=2, duty cycle=2, 10 pulses each at 10 s. with the tip of small sonicator probe submerged but not touching the walls. DTT was then added to 1 mM from a 1 M stock. The samples were centrifuged at 1500 rpm for 5 min. The low speed supernatant was saved and centrifuged (TLA 100.3 rotor, polycarbonate tubes, 2 ml/tube or 1.5 ml/tube minimum) at 100000×g for 1 hr. The high speed pellet was resuspend in Buffer A with a probe sonicator (10 pulses @ output #2 and duty cycle 20%) as a source of LPAAT enzyme.
LPAAT-β catalyzes the transfer of an acyl group from a donor such as acyl-CoA to LPA. The transfer of the acyl group from acyl-CoA to LPA leads to the release of free CoA, which can be reacted with the thiol reagent, 5,5′-dithiobis(2-nitrobenzoic acid) (DTNB). The reaction between DTNB and the free sulfhydryl group from CoA generates a yellow-colored product, 3-carboxylato-4-nitrothiophenolate (CNP), that absorbs at 413 nm. LPAAT-β derived from Sf9 cell membrane overexpressing LPAAT-β were resuspended in HEPES saline buffer (20 mM HEPES pH 7.5, 150 mM NaCl), 1 mg/ml BSA and 72 μl aliquots were distributed into 96-well microtiter plates. 8 μl of compound of interest at 200 μM dissolved in 100% DMSO was added into each well. 20 μl of 1 mM 18:1-CoA and 1 mM sn-1-18: 1 lysoPA was then added to each well to initiate the reaction and allowed to run at room temperature for 25 min. 100 μl of 1 mM DTNB in 100% ethanol was then added to each well to quench the reaction and for color development. The absorbance at 405 nm, measured using a spectrophotometer plate reader, is proportional to the activity of LPAAT-β in the sample. This colorimetric assay was used for the high throughput screening of LPAAT inhibitors. […] Compounds that gave a reading of less than 0.06 arbitrary units (indicated by arrow on right margin) were selected for further study.

On to `COc1ccc(Nc2nc(Cl)nc(Nc3ccc(Cl)cc3)n2)cc1` [CT-31867, 6-chloro-N-(4-chlorophenyl)-N′-(4-methoxy-phenyl)-[1,3,5]triazine-2,4-diamine], for which the IC50 (commonly the concentration at which inhibition is half-maximal) turned out to be 750 nM.

For the compound `CSc1nc(Nc2ccccc2)nc(Nc2ccc(Cl)cc2)n1` [CT-31888, N-(4-chlorophenyl)-6-methylsulfanyl-N′-phenyl-[1,3,5]triazine-2,4-diamine], the IC50 was determined as 3100 nM.

In the case of `COc1ccc(Nc2nc(Cl)nc(Nc3ccccc3)n2)cc1` [CT-31942, 6-chloro-N-(4-methoxyphenyl)-N′-phenyl-[1,3,5]triazine-2,4-diamine], the IC50 came out at 400 nM.

With `Clc1ccc(Nc2nc(Cl)nc(Nc3ccc4c(c3)OCO4)n2)cc1` [CT-31978, N-benzo[1,3]dioxol-5-yl-6-chloro-N′-(4-chlorophenyl)-[1,3,5]triazine-2,4-diamine], the IC50 was 1000 nM.

Turning to `Clc1nc(Nc2ccccc2)nc(Nc2ccc3c(c2)OCCO3)n1` [CT-32028, 6-chloro-N-(2,3-dihydrobenzo[1,4]dioxin-6-yl)-N′-phenyl-[1,3,5]triazine-2,4-diamine], the IC50 is 200 nM.

Consider `Clc1nc(Nc2ccccc2)nc(Nc2ccc3c(c2)OCO3)n1` [CT-32042, N-benzo[1,3]dioxol-5-yl-6-chloro-N′-phenyl-[1,3,5]triazine-2,4-diamine], for which the IC50 was 200 nM.

Take `Clc1nc(Nc2ccccc2)nc(Nc2ccc3c(c2)CCC3)n1` [CT-32099, 6-chloro-N-indan-5-yl-N′-phenyl-[1,3,5]triazine-2,4-diamine]: the IC50 was determined as 650 nM.

Take `CCCNc1nc(Cl)nc(Nc2ccc(Cl)cc2)n1` [CT-116988, 6-chloro-N-2-(4-chlorophenyl)-N-4-propyl-[1,3,5]triazine-2,4-diamine]: the half-inhibitory concentration (IC50) was found to be 160 nM.

With `CCCNc1nc(Nc2ccc(Cl)cc2)nc(OC)n1` [CT-117147, N-(4-chlorophenyl)-6-methoxy-N′-propyl-[1,3,5]triazine-2,4-diamine], the half-inhibitory concentration (IC50) worked out at 3800 nM.
